From patent US11464224B2, “Liquid spreading composition with ectoparasiticidal activity, a method and use thereof for combating ectoparasites in human and veterinary medicine, as well as in agricultural, horticultural and/or garden environments” (priority 2014, dated 2022)
Like-named read-outs stand apart in the source and are kept apart here.

Tests used:
[1] = Spreading test: 5 μl drop on glass plate, area covered after 30 min; assay type: physicochemical; details: 25° C.
Excerpt: The following tests have been performed to measure and compare spreading properties of the composition prepared according to Example 1 (N) with Isopropyl Myristate (IPM) and Diethylene Glycol Monoethyl Ether (DGME), known from the state of art as spreading agents. All compositions acted as a carrier of an active insecticidal substance: clove oil (an insect repellent), S-Methoprene (biochemical pesticide interfering with an insect's lifecycle and preventing it from reaching maturity or reproducing) or Etofenprox (neurotoxic insecticide, which disturbs insect nervous systems).
Area (S) of the surface (cm^2) covered by the composition has been measured after 30 min. As an alternative spreading indicator one might also employ Emollient Skin Spreading Factor as defined by Croda (Croda DS-128, Emollient Skin Spreading Factor (1998)).
The following tests have been performed to measure and compare spreading properties of the composition prepared according to Example 1 with ectoparasiticidal compositions known from the state of art. As in the previous tests 5 μl drop of the composition has been applied in the middle of a glass plate at 25° C. Area of the surface (cm^2) covered by the composition has been measured after 30 min.

adult lice = details: cited from earlier work

Row | Compound | S, area of the surface covered by the composition (active substance carriers) [1] [cm^2] | Mortality of adult lice (adult lice; concentration below 70% by weight) | Mortality of adult lice (adult lice; concentration of over 80% by weight) [%]
1 | CCCCCCCCCCCCCC(=O)OC(C)C [compound 10, Isopropyl Myristate] | 0.6 | less than 20% | 100
2 | CCOCCOCCO [compound 11, Diethylene Glycol Monoethyl Ether] | 0.6 | – | –
